Reference: patent US8252831B2, “Imidazole-2-benzamide compounds useful for the treatment of osteoarthritis” (Eli Lilly and Company, priority 2010, dated 2012)

Tests used:
Human whole blood = test: Human Whole Blood Assay (LPS induced PGE2 production); type: cell-based; conditions: LPS 100 μg/mL, 20-24 hours, PGE2 by LC/MS/MS, read-out: PGE2 Inhibition. IC50 (μM, mean ± std. dev.)
Protocol: Blood is collected from normal volunteer donors into sodium heparin vacutainer tubes. Donors are selected, in part, on their confirmation that they have not taken NSAIDs, aspirin, Celebrex, or glucocorticoids within two weeks of the donation. All tubes/donor are pooled into 250 mL Corning conical centrifuge tubes and 436.5 μL/well is distributed into deep well polypropylene plates. Compounds are diluted in DMSO to 100× final and 4.5 μL/well in duplicate or triplicate is added to give 7 point curves. […] One hundred microliters is quantitatively transferred to Costar cluster tubes blocks and 400 μL/well of the methanol stop reagent and internal standards, d-4PGE2, d-4PGF2α, and d-4TX2β are added. […]
Solid phase extraction is performed using Waters HLB 30 mg/bed 96 well plates on a vacuum manifold: 1) the matrix is washed with methanol (1 mL), followed by 0.1% formic acid in water (1 mL); 2) 400 μL sample is applied along with 0.1% formic acid in water (900 μL) and allowed to bind for 5 minutes; 3) the matrix is washed with 0.1% formic acid in water (600 μL), followed by 80/20 water/methanol (600 μL); 4) the products are eluted with 2-500 μL volumes of ethyl acetate; 5) the samples are dried under nitrogen and reconstituted in 75/25 water/acetonitrile with 0.1% formic acid (50 μL). The products were analyzed by LC/MS/MS. […]

[1] = test system: Human epithelial lung carcinoma cell line A549; test: Cell Based Assay for Measuring Eicosanoid Selectivity (rhIL-1β induced PGE2 in A549 cells); conditions: rhIL-1β 0.1-0.2 ng/mL, approximately 18 hours, PGE2 by EIA, read-out: PGE2 Inhibition. IC50 (μM, mean ± std. dev.)
Protocol: Human epithelial lung carcinoma cell line A549 is obtained from ATCC (CCL-185) and is maintained in Kaighn's F12 (“F12K”)+10% fetal bovine serum, (FBS) (plating medium), and 5% CO2. The cells are passaged at 1:3 twice per week.
For assay, cells are released from flasks by washing once with phosphate buffered saline (PBS), then once with Trypsin/EDTA. After 3-5 minutes at 37° C., the cells are suspended in 10 mL of plating medium and centrifuged at 2000 rpm, 25° C., for 5 minutes. The supernatant is aspirated and the cell pellet is resuspended in 10 mL F12K. Cell number is determined by counting an aliquot of cells which has been diluted in PBS and Trypan blue on a hemocytometer. Cells are plated at 40,000/well in 96 well Falcon plates 24 hours prior to treatment. Compounds are diluted in DMSO to 100× of the final concentration in Screen Mates tubes. The medium is removed from the cells and fresh medium (90 μL/well) is added to the cells. […] The plates are incubated at room temperature for 30-45 minutes and then read on a plate reader at A490 to determine viability. […]
The conditioned medium is assayed for levels of PGE2 and PGI2 by specific enzyme immune-assays (EIAs), according to the manufacturer's protocols (Cayman). […] After approximately 45 minutes at room temperature on an orbital shaker at 100 rpm, the plates are read at A412 on a plate reader. […]

CC(C)(C)C(=O)NCc1ccc(Br)c(C(=O)Nc2ncc[nH]2)c1 [Example 5, 2-Bromo-5-[(2,2-dimethylpropanoylamino)methyl]-N-(1H-imidazol-2-yl)benzamide] gave an IC50 (Human whole blood) of 0.607 ± 0.502 µM and an IC50 [1] of 0.19 µM.
